According to patent publication US6387905B2, “Compounds useful for inhibition of farnesyl protein transferase” (Schering Corporation, priority 1996, dated 2002):
Where two headings read alike, the source gives them in different places.

Experiments:
[1] = molecular target: farnesyl protein transferase (FPT), K-ras (Homo sapiens, UniProt P49354+P49356); test: FPT IC50 (K-ras), inhibition of farnesyl protein transferase, in vitro enzyme assay; assay type: biochemical
Procedure: (§1) FPT IC50 (inhibition of farnesyl protein transferase, in vitro enzyme assay) and COS Cell IC50 (Cell-Based Assay) were determined following the assay procedures described in WO 95/10516, published Apr. 20, 1995. GGPT IC50 (inhibition of geranylgeranyl protein transferase, in vitro enzyme assay), Cell Mat Assay, and anti-tumor activity (in vivo anti-tumor studies) could be determined by the assay procedures described in WO 95/10516. The disclosure of WO 95/10516 is incorporated herein by reference thereto.

[2] = molecular target: farnesyl protein transferase (FPT), H-ras (Homo sapiens, UniProt P49354+P49356); test: FPT IC50 (H-ras), inhibition of farnesyl protein transferase, in vitro enzyme assay; assay type: biochemical
Procedure: as §1

COS Cell = COS Cell IC50 (Cell-Based Assay); details: COS
Procedure: as §1

Human tumor cells = test: Soft Agar Assay (anchorage-independent growth); assay type: cell-based
Procedure: Anchorage-independent growth is a characteristic of tumorgenic cell lines. Human tumor cells are suspended in growth medium containing 0.3% agarose and an indicated concentration of a farnesyl transferase inhibitor. The solution is overlayed onto growth medium solidified with 0.6% agarose containing the same concentration of farnesyl transferase inhibitor as the top layer. After the top layer is solidified, plates are incubated for 10-16 days at 37° C. under 5% CO2 to allow colony outgrowth. After incubation, the colonies are stained by overlaying the agar with a solution of MTT (3-[4,5-dimethyl-thiazol-2-yl]-2,5-diphenyltetrazolium bromide, Thiazolyl blue) (1 mg/mL in PBS). Colonies can be counted and the IC50's can be determined.

[3] = Table 3, H-ras, read-out: FPT IC50 (nM) (H-ras)
[4] = H-ras, read-out: FPT IC50 (H-ras)
[5] = Table 3, read-out: COS Cell IC50
[6] = Table 5, read-out: Cos Cell IC50
[7] = Homo sapiens, Table 5, read-out: Soft Agar IC50

| SMILES | IC50 [1] [nM] | IC50 (Human tumor cells; [7]) [nM] | IC50 ([2]; Table 4, read-out: FPT IC50) [nM] | IC50 (COS Cell; [6]) [nM] | also measured |
| --- | --- | --- | --- | --- | --- |
| O=C(CC1CCN(C(=O)Cn2cnc3ccccc32)CC1)N1CCC([C@H]2c3ncc(Br)cc3CCc3cc(Cl)cc(Br)c32)CC1 [Example 12.0-B] | 26.7 | – | – | – | – |
| O=C(CC1CCN(C(=O)CN2CCS(=O)(=O)CC2)CC1)N1CCC([C@H]2c3ncc(Br)cc3CCc3cc(Cl)cc(Br)c32)CC1 [Example 6.0-B] | 14.5 | – | – | – | – |
| Cc1cn(CC(=O)N2CCC(CC(=O)N3CCC([C@H]4c5ncc(Br)cc5CCc5cc(Cl)cc(Br)c54)CC3)CC2)cn1 [Example 11.0-B] | 12.6 | – | – | – | – |
| N[C@@H](Cc1c[nH]cn1)C(=O)N1CCC(CC(=O)N2CCC([C@H]3c4ncc(Br)cc4CCc4cc(Cl)cc(Br)c43)CC2)CC1 [Example 11] | 49 | – | – | – | IC50 [2, 3]: 15 nM |
| Cc1nccn1CC(=O)N1CCC(CC(=O)N2CCC([C@H]3c4ncc(Br)cc4CCc4cc(Cl)cc(Br)c43)CC2)CC1 [Example 10.0-B] | 15.8 | – | – | – | – |
| CCOC(=O)c1ncn(CC(=O)N2CCC(CC(=O)N3CCC([C@H]4c5ncc(Br)cc5CCc5cc(Cl)cc(Br)c54)CC3)CC2)c1C [Cmpd 54.0-B] | – | > 500 | 3.9 | 100 | – |
| O=C(CC1CCN(C(=O)CC2CCCCO2)CC1)N1CCC([C@H]2c3ncc(Br)cc3CCc3cc(Cl)cc(Br)c32)CC1 (some centres unmarked) [Cmpd 114.3-B] | – | 432 | 7.2 | 11 | – |
| O=C(CO/N=C/c1cc[n+]([O-])cc1)N1CCC(CC(=O)N2CCC([C@H]3c4ncc(Br)cc4CCc4cc(Cl)cc(Br)c43)CC2)CC1 [Cmpd 22.0-B] | – | 19.5 | 1.8 | 35 | – |
| O=C(CC1CCN(C(=O)[C@@H]2CCCN2)CC1)N1CCC([C@H]2c3ncc(Br)cc3CCc3cc(Cl)cc(Br)c32)CC1 [Example 12] | 35 | 250 | – | – | IC50 [2, 3]: 4.4 nM; IC50 (COS Cell; [5]): 55 nM |
| Cc1cn(CC(=O)N2CCC(CC(=O)N3CCC([C@H]4c5ncc(Br)cc5CCc5cc(Cl)cc(Br)c54)CC3)CC2)cn1 [Cmpd 11.0-B] | – | > 500 | 1.6 | 29 | – |
| O=C(O)CCCCC(=O)N1CCC(CC(=O)N2CCC([C@H]3c4ncc(Br)cc4CCc4cc(Cl)cc(Br)c43)CC2)CC1 [Example 81] | – | – | 3.6 | – | IC50 (COS Cell; read-out: Cos Cell IC50, Table 5): 30 nM; IC50 (Human tumor cells; Homo sapiens, read-out: Soft Agar IC50, Table 5): 480 nM |
| O=C(CC1CCN(C(=O)Cn2cnc3cccnc32)CC1)N1CCC([C@H]2c3ncc(Br)cc3CCc3cc(Cl)cc(Br)c32)CC1 [Example 13.0-B] | 19.7 | – | – | – | – |
| O=C(C(=O)N1CCC(CC(=O)N2CCC([C@H]3c4ncc(Br)cc4CCc4cc(Cl)cc(Br)c43)CC2)CC1)c1cccs1 [Cmpd 81.0-B] | – | > 500 | 9.3 | 28 | – |
| O=C(CC1CCOCC1)N1CCC(CC(=O)N2CCC([C@H]3c4ncc(Br)cc4CCc4cc(Cl)cc(Br)c43)CC2)CC1 [Cmpd 85.0-B] | – | 333 | 5 | 14 | – |
| O=C(CCN1CCCCC1)N1CCC(CC(=O)N2CCC([C@H]3c4ncc(Br)cc4CCc4cc(Cl)cc(Br)c43)CC2)CC1 [Example 7.0-B] | 15.4 | – | – | – | – |
| O=C(CC1CCN(C(=O)Cn2cnc3cccnc32)CC1)N1CCC([C@H]2c3ncc(Br)cc3CCc3cc(Cl)cc(Br)c32)CC1 [Cmpd 13.0-B] | – | > 500 | 4.1 | 25 | – |
| O=C(CC1CCN(C(=O)Cn2cnc3ccccc32)CC1)N1CCC([C@H]2c3ncc(Br)cc3CCc3cc(Cl)cc(Br)c32)CC1 [Cmpd 12.0-B] | – | > 500 | 3 | 20 | – |
| O=C1NC(=O)C(CC(=O)N2CCC(CC(=O)N3CCC([C@H]4c5ncc(Br)cc5CCc5cc(Cl)cc(Br)c54)CC3)CC2)N1 (some centres unmarked) [Cmpd 77.0-B] | – | 240 | 3.2 | 14 | IC50 (Human tumor cells; Table 5, read-out: Soft Agar IC50): 214 nM |
| O=C(Cc1cccs1)N1CCC(CC(=O)N2CCC([C@H]3c4ncc(Br)cc4CCc4cc(Cl)cc(Br)c43)CC2)CC1 [Cmpd 82.0-B] | – | > 500 | 7.1 | < 10 | – |
| NC(=O)CC(O)CC(=O)N1CCC(CC(=O)N2CCC([C@H]3c4ncc(Br)cc4CCc4cc(Cl)cc(Br)c43)CC2)CC1 (some centres unmarked) [Cmpd 92.0-B] | – | 45 | 2.2 | 15 | – |
| N[C@@H](Cc1ccccc1)C(=O)N1CCC(CC(=O)N2CCC([C@H]3c4ncc(Br)cc4CCc4cc(Cl)cc(Br)c43)CC2)CC1 [Example 10] | 71.2 | – | – | – | IC50 [2, 3]: 8.3 nM; IC50 (COS Cell; [5]): 300 nM |

Second part, led by results:

| IC50 [1] [nM] | IC50 (Human tumor cells; [7]) [nM] | IC50 ([2]; Table 4, read-out: FPT IC50) [nM] | SMILES | IC50 (COS Cell; [6]) [nM] | also measured |
| --- | --- | --- | --- | --- | --- |
| 43.2 | – | – | CC(C)(C)OC(=O)NCC(=O)N1CCC(CC(=O)N2CCC([C@H]3c4ncc(Br)cc4CCc4cc(Cl)cc(Br)c43)CC2)CC1 [Example 1] | – | IC50 [2, 3]: 12.3 nM |
| 22 | – | – | C[C@@H](NC(=O)OC(C)(C)C)C(=O)N1CCC(CC(=O)N2CCC([C@H]3c4ncc(Br)cc4CCc4cc(Cl)cc(Br)c43)CC2)CC1 [Example 5] | – | IC50 [2, 3]: 8.4 nM |
| 23.8 | – | – | C[C@H](N)C(=O)N1CCC(CC(=O)N2CCC([C@H]3c4ncc(Br)cc4CCc4cc(Cl)cc(Br)c43)CC2)CC1 [Example 4] | 140 | IC50 [2, 4]: 5.2 nM; IC50 (COS Cell; [5]): 140 nM |
| 31 | 200 | – | C[C@@H](N)C(=O)N1CCC(CC(=O)N2CCC([C@H]3c4ncc(Br)cc4CCc4cc(Cl)cc(Br)c43)CC2)CC1 [Example 6] | 39 | IC50 [2, 4]: 8.1 nM; IC50 (COS Cell; [5]): 39 nM |
| 41 | – | – | CC(C)=NOCC(=O)N1CCC(CC(=O)N2CCC([C@H]3c4ncc(Br)cc4CCc4cc(Cl)cc(Br)c43)CC2)CC1 [Example 9.0-B] | – | – |
| 19.4 | 160 | – | CN(C)CC(=O)N1CCC(CC(=O)N2CCC(C3c4ncc(Br)cc4CCc4cc(Cl)cc(Br)c43)CC2)CC1 (single isomer, unassigned; (+)) [Example 21] | – | IC50 [2, 3]: 2.5 nM; IC50 (COS Cell; [5]): 10 nM; IC50 (Human tumor cells; Table 5, listed as 12.1, read-out: Soft Agar IC50): 90 nM |
| – | 95 | 3.3 | NC(=O)CC(=O)N1CCC(CC(=O)N2CCC([C@H]3c4ncc(Br)cc4CCc4cc(Cl)cc(Br)c43)CC2)CC1 [Cmpd 50.0-B] | < 10 | – |
| 41 | – | – | CC(C)(C)OC(=O)N[C@@H](Cc1c[nH]cn1)C(=O)N1CCC(CC(=O)N2CCC([C@H]3c4ncc(Br)cc4CCc4cc(Cl)cc(Br)c43)CC2)CC1 [Example 8] | 125 | IC50 [2, 3]: 7.4 nM; IC50 (COS Cell; [5]): 125 nM |
| – | > 500 | 2.2 | NCCC(=O)N1CCC(CC(=O)N2CCC([C@H]3c4ncc(Br)cc4CCc4cc(Cl)cc(Br)c43)CC2)CC1 [Cmpd 88.0-B] | 23 | – |
| 34.8 | – | – | CC(C)(C)OC(=O)N1CCC[C@H]1C(=O)N1CCC(CC(=O)N2CCC([C@H]3c4ncc(Br)cc4CCc4cc(Cl)cc(Br)c43)CC2)CC1 [Example 9] | – | IC50 [2, 3]: 11.6 nM; IC50 (COS Cell; [5]): 700 nM |
| – | 120 | 2.6 | N#CCC(=O)N1CCC(CC(=O)N2CCC([C@H]3c4ncc(Br)cc4CCc4cc(Cl)cc(Br)c43)CC2)CC1 [Cmpd 44.0-B] | < 10 | – |
| 30 | – | – | C[C@H](NC(=O)OC(C)(C)C)C(=O)N1CCC(CC(=O)N2CCC([C@H]3c4ncc(Br)cc4CCc4cc(Cl)cc(Br)c43)CC2)CC1 [Example 3] | – | IC50 [2, 3]: 6.3 nM |
| – | > 500 | – | COC(=O)C(=O)N1CCC(CC(=O)N2CCC([C@H]3c4ncc(Br)cc4CCc4cc(Cl)cc(Br)c43)CC2)CC1 [Example 104.0-B] | 40 | IC50 [2, 4]: 4.6 nM |
| – | > 120 | 2.1 | CN(C)C(=O)C(=O)N1CCC(CC(=O)N2CCC([C@H]3c4ncc(Br)cc4CCc4cc(Cl)cc(Br)c43)CC2)CC1 [Cmpd 33.0-B] | 10 | – |
